For assay [1], the system named is SD male rats with streptozotocin-induced type 1 diabetes. Briefly: Randall-Sellito test, threshold response to pressure on a paw, streptozotocin-diabetic SD rats. It is filed as in vivo, rat. As for the experimental part: (§1) The ability of the extracts to alleviate the pain caused by diabetic neuropathy was examined. In this regard, rats with streptozotocin-induced diabetes were separated and orally administered with the extracts at a predetermined dose once a day for 14 weeks, with α-lipoic acid 50 mg/kg and Gabapentin 100 mg/kg serving as positive controls. A Randall-Sellito test was performed to measure a threshold response to pressure on a paw. The latent time taken to respond to a thermal pain was measured using a tail-flick test. In order to evaluate the neurodegeneration which had progressed with the onset of diabetic neuropathy, the sciatic nerve taken from the rats of each group was fixed with formalin and observed under an electron microscope to measure the size and thickness of the myelin sheath, and the results are summarized in Table 9.
(§2) An increase in threshold to mechanical stimuli delineates an increase in threshold to pain. In the tail flick test, an increase in latent time to pain response corresponds to an increase in threshold to thermal stimuli, indicating the alleviation of pain.

Assay [2] concerns nerve growth factor (NGF). Briefly: Test for in vivo level of nerve growth factor in normal mouse model (ELISA). Particulars: normal male ICR mice. Here is the method: Ability of the crude extract with 50% ethanol in Example 1 to induce the secretion of nerve growth factor in vivo was evaluates (O. Arrieta and J. Sotelo et al., Retinoic acid increased tissue and plasma contents of nerve growth factor and prevents neuropathy in diabetic mice. European Journal of Clinical Investigation (2005) 35).
Male ICR mice, each weighing 25-30 g, were acclimated for 1 week at 22-24° C. at a relative humidity of 60-80% while being fed with water and a standard diet. They were divided into groups according to weight. The extracts prepared in the above Examples were orally administered in predetermined amounts to the mice, with Gabapentin used as a positive control at a doe of 100 mg/kg. 16 hours after which blood was sampled from the mice. They were then sacrificed to obtain the sciatic nerve and the salivary glands.
After the blood samples were centrifuged at 10,000 rpm for 10 min, the levels of nerve growth factor in the plasma thus separated were measured by ELISA (ABS 440 nm). The sciatic nerve and the salivary glands were weighed and a solution containing 100 mM Tris-HCl, 1M NaCl, 2% BSA, 4 mM EDTA, 2.0% Trtion®X-100, 0.02% sodium azide, 0.1 mg/ml pepstatin A, 5 mg/ml aprotonin, 0.5 mg/ml antipain, 167 mg/ml benzamidine, and 5.2 mg/ml PMSF was added in amounts proportional to the weights, followed by homogenization. The homogenates were incubated for 15 min with 1N HCl in an amount of 1 μl/50 μl for oxidization and neutralized with 1N NaOH in an amount of 1 μl/50 μl. Centrifugation was performed at 10,000 rpm for 10 min to obtain supernatants. Like plasma, the sciatic nerve and the salivary glands were quantitatively analyzed for the level of nerve growth factor.

Assay [3] concerns nerve growth factor (NGF). Briefly: NGF level in sciatic nerve of db/db male mice with type 2 diabetes (ELISA). It is filed as in vivo, mouse. As for the experimental part:
(§3) db/db Male mice, each weighing 40^˜45 g, were acclimated for one week at 22-24° C. at a relative humidity of 60-80%, with a standard diet and water fed thereto. On the day of the 9th week after birth, the mice in which diabetes had been induced were selected. Four weeks later, mice suffering from type 2 diabetes were separated according to blood sugar level. The extracts prepared in the above Examples were orally administered once a day for 12 weeks at predetermined doses to the mice, while α-lipoic acid and gabapentin were used as positive controls at a dose of 50 mg/kg and 100 mg/kg, respectively. Mice in each group were placed on a 58° C. hot plate, and examined for hyperalgesia to heat stimulus by measuring the latent time it took for the mice to feel a heat pain on their foot soles and jump.
Then, the mice were sacrificed to obtain the sciatic nerve therefrom. The sciatic nerve was processed in the same manner as in Test Example 1 and its NGF level was measured by ELISA.
(In general: An ELISA detects its analyte on a solid surface through an enzyme-linked reagent.)

Assay [4] deals with SD male rats with streptozotocin-induced type 1 diabetes. Description: Tail-flick test, latent time to thermal pain, streptozotocin-diabetic SD rats. In kind it is in vivo, rat. As for the experimental part:
as §1, §2
In general terms: Thermal pain tests record how soon the animal reacts.

Assay [5] relates to ICR male mice with streptozotocin-induced type 1 diabetes. Description: 58° C. hot plate test, ICR male mice with streptozotocin-induced type 1 diabetes. In kind it is in vivo, mouse. The following applies: streptozotocin-diabetic ICR male mice. As for the experimental part:
(§4) ICR male mice, each weighing 25^˜30 g, were acclimated for one week at 22-24° C. at a relative humidity of 60-80%, with a standard diet and water fed thereto. Thereafter, a solution of streptozotocin in saline was intravenously administered once at a dose of 200 mg/kg to the mice to induce type 1 diabetes. Four weeks after the induction of diabetes, rats were divided into groups according to blood sugar level. The extracts prepared in the above Examples were orally administered once a day for 14 weeks at predetermined doses to the mice, while α-lipoic acid and Gabapentin were used as positive controls at a dose of 50 mg/kg and 100 mg/kg, respectively. Mice in each group were placed on a 58° C. hot plate, and examined for hyperalgesia to heat stimulus by measuring the latent time it took for the mice to feel a heat pain on their foot soles and jump.

Assay [6] has as its system nerve growth factor (NGF). Briefly: NGF level in sciatic nerve and salivary gland of SD male rats with streptozotocin-induced type 1 diabetes (ELISA). In kind it is in vivo, rat. The following applies: streptozotocin-diabetic SD male rats. As for the experimental part: SD male rats, each weighing 220^˜250 g, were acclimated for one week at 22-24° C. at a relative humidity of 60-80% with standard diet and water fed thereto. Thereafter, a solution of streptozotocin in saline was intravenously administered once at a dose of 50 mg/kg to the rats to induce type 1 diabetes. Four weeks after the induction of diabetes, rats were divided into groups according to blood sugar level. The extracts prepared in the above Examples were orally administered once a day for 8 weeks at predetermined doses to the rats, while α-lipoic acid and Gabapentin were used as positive controls at does of 50 mg/kg and 100 mg/kg, respectively. Then, they were sacrificed to obtain the sciatic nerve and the salivary glands. The sciatic nerve and the salivary glands were processed in the same manner as in Test Example 1 and measured for NGF level by ELISA.

Assay [7] relates to SD male rats with streptozotocin-induced type 1 diabetes. Description: Neurodegeneration: size and thickness of myelin sheath of sciatic nerve by electron microscope, streptozotocin-diabetic SD rats. It is filed as in vivo, rat. Here is the method:
as §1

Assay [8] has as its system db/db male mice with type 2 diabetes. Description: 58° C. hot plate test, db/db male mice with type 2 diabetes. It is filed as in vivo, mouse. Here is the method: as §3
Assay [9] deals with nerve growth factor (NGF). Briefly: NGF level in sciatic nerve and salivary gland of ICR male mice with streptozotocin-induced type 1 diabetes (ELISA). It is filed as in vivo, mouse. The following applies: streptozotocin-diabetic ICR male mice. As for the experimental part:
as §4
Then, the mice were sacrificed to obtain the sciatic nerve and the salivary glands therefrom. The sciatic nerve and the salivary glands were processed in the same manner as in Test Example 1 and measured for NGF level by ELISA.

The test system of the next assay is TrkA (NGF receptor). Briefly: Phosphorylation of NGF receptor in PC12 nerve cells (Western blotting). It is filed as cell-based, rat. Particulars: 48 hours. As for the experimental part:
For use in this test, PC12 nerve cells were seeded at the same density per well into plates and incubated for 24 hours. The cells were washed with PBS and cultured for 48 hours in culture media supplemented with the herb extracts of Example 1 or Comparative Examples 1 to 10 or NGF. Thereafter, phosphorylated TrkA (NGF receptor) were detected using Western blotting, and quantitatively analyzed on the basis of the thickness of the detected bands.
NGF signaling starts with the binding of NGF to its receptor (Trk-A), which results in the phosphorylation of the receptor. Thus, an increased level of phosphorylated NGF receptors means the amplification of the NGF signaling pathway.
Background: A western blot detects proteins with antibodies after separation by electrophoresis.

In a further assay the test system is PC12 nerve cells. Briefly: Growth of PC12 nerve cells (MTS assay). In kind it is cell-based, rat. Particulars: 48 hours. As for the experimental part:
For use in a test for ability to induce nerve cell growth, PC12 nerve cells were seeded at the same density per well into plates and incubated for 24 hours.

For assay [10], the system named is DRG (Dorsal root ganglion) nerve cells. Briefly: Growth of neurites in rat-derived DRG nerve cells (neurite area under microscope). It is filed as cell-based. The following applies: rat embryo DRG cells, 48 hours. Here is the method: For use in this test, DRG nerve cells were seeded at the same density into plates and incubated for 24 hours. Thereafter, the cells were washed with PBS and cultured for 48 hours in a culture medium in the absence or presence of a combination of the extract of Example 1 or Comparative Examples 1 to 10, and NGF. The nerve cells in each group were observed under a microscope to measure the area of the neurites grown therein.

The mark [11] stands for this setting: 50 mg/kg once a day for 14 weeks.
[12] abbreviates: 50 mg/kg once a day for 12 weeks.
Where [13] appears, read: 50 mg/kg once a day for 8 weeks.
[14] abbreviates: oral 100 mg/kg once a day for 14 weeks.
Where [15] appears, read: oral 100 mg/kg, 16 hours after dosing.
[16] abbreviates: oral 100 mg/kg once a day for 12 weeks.
The mark [17] stands for this setting: oral 100 mg/kg once a day for 8 weeks.

As to `O=C(O)CCCCC1CCSS1` (stereo not drawn) [α-Lipoic acid], the “Pressure Pain Threshold” value in [1] (setting [11]) came to 150.0 g. Moreover, in [2] (50 mg/kg), the “NGF Level in Salivary Gland” value was 164.4 ng/mg and the “NGF Level in Sciatic Nerve” value was determined as 5.0 pg/mg. Besides, in assay [3] (setting [12]), the “NGF Level in Sciatic Nerve” value is 7.6 pg/mg. Besides, the “Latent Time to Pain Reaction” value in [4] (setting [11]) is 7.4 s. Besides, the “Latent Time to Pain Response on 58° C. Hot Plate” value (from here on “Latent Time to Pain Response”) in assay [5] (setting [11]) turned out to be 31.1 s. Besides, in assay [6] (setting [13]), the “NGF Level Salivary Gland” value was found to be 2.8 ng/mg and the “NGF Level Sciatic Nerve” value is 13.8 pg/mg. Further, in [7] (50 mg/kg), the “Size of Myelin sheath” value is recorded as 11.2 μm and the “Thickness of Myelin sheath” value is 2.6 μm. In addition, the “Latent Time to Pain Response” value in assay [8] (setting [12]) stood at 15.4 s. Moreover, in assay [9] (setting [11]), the “NGF Level Salivary Gland” value turned out to be 118.7 ng/mg and the “NGF Level Sciatic Nerve” value stood at 5.7 pg/mg.

On to “NGF: nerve growth factor added to culture media”, for which the “Relative Amount of Phosphorylated NGF” value is 241 % of control in the assay with TrkA (NGF receptor) (NGF 2 ng/ml alone) and 337 % of control in the assay with TrkA (NGF receptor) (NGF 50 ng/ml alone). Moreover, the “Proliferative Effect on Nerve Cell” value in the assay with PC12 nerve cells (2 ng/ml) is on record as 112 % of control; in the assay on PC12 nerve cells (50 ng/ml), 118 % of control. The entries for the “Neurite Area of DRG Nerve Cell” value in [10] (NGF 2 ng/ml alone) and in assay [10] (NGF 50 ng/ml alone) were 235 μm^2 and 461 μm^2, respectively.

As to `NCC1(CC(=O)O)CCCCC1` [Gabapentin], the “Pressure Pain Threshold” value in assay [1] (setting [14]) stood at 137.7 g. In addition, in [2] (setting [15]), the “NGF Level in Plasma” value was 610.4 pg/mL, the “NGF Level in Salivary Gland” value turned out to be 193.1 ng/mg and the “NGF Level in Sciatic Nerve” value amounted to 4.2 pg/mg. In addition, the “NGF Level in Sciatic Nerve” value in assay [3] (setting [16]) is recorded as 7.2 pg/mg. Also, the “Latent Time to Pain Reaction” value in [4] (setting [14]) stood at 7.7 s. Also, the “Latent Time to Pain Response” value in assay [5] (setting [14]) came to 33.0 s. Also, in assay [6] (setting [17]), the “NGF Level Salivary Gland” value was 2.4 ng/mg and the “NGF Level Sciatic Nerve” value is given as 14.9 pg/mg. In assay [7] (100 mg/kg), the “Size of Myelin sheath” value turned out to be 10.4 μm and the “Thickness of Myelin sheath” value is listed as 2.2 μm. In addition, the “Latent Time to Pain Response” value in [8] (setting [16]) was 16.1 s. In [9] (setting [14]), the “NGF Level Salivary Gland” value worked out at 117.1 ng/mg and the “NGF Level Sciatic Nerve” value was determined as 5.5 pg/mg.

For the origin of these results see patent publication US10398747B2, “Composition comprising the extract of herbal combination for preventing or treating diabetic peripheral neuropathy” (DONG-A ST CO., LTD., priority 2011, dated 2019).
